pIC50: −log10 of the molar value. Where a name gives a salt, the structure may show the parent alone. Peptide text beside a SMILES is read from it. * marks the point of attachment. Cbz = O=C(OCc1ccccc1)*

Experiment [1] concerns MCF7. Nature of the experiment: Flow cytometry of CSt-C markers after culture with drugs. In kind it is cell-based, human. As to conditions: for cells harvested: after culture of 3×10^6 MCF-7 cells. Here is the method: (§1) Flow cytometery analysis. All cells were cultured with Gem at 2×IC50 of gemcitabine for 10 days. Cultured cells (2×10^5) were washed in cold-PBS followed by blocking with 20 μL of 1 mg/mL of human IgG (Sigma, Saint Louis, Mo.) for 1 hour on ice. This step was necessary to inhibit non-specific binding of immunoglobulins during staining. Cells were then triple-stained with antibodies against ESA, CD44, and CD24. Analysis was performed with Becton Dickinson FACSCalibur and Cell Quest software (Becton Dickinson). Cells were gated on ESA+ population. Expression of CD24 and CD44 was examined in gated ESA+ cells as we described (26). The population of the ESA+, CD44hi and CD24low/− cells was calculated as percent of total cells and total ESA+ cells. All cell lines were also stained with a MIC-A/B and CD133, and analyzed as above.

Experiment [2] relates to AsPC-1. Described as above. In kind it is cell-based, human. As to conditions: AsPC-1 after culture with drug. On the procedure:
as §1

Experiment [3] concerns SKOV-3. The description is as above. In kind it is cell-based, human. Here is the method: as §1
The test system of experiment [4] is MIA-PaCa-2. The experiment is described as above. As to conditions: for % CD44hi CD24- in ESA+ cells / % CD44hi CD24hi in ESA+ cells / % CD44hi CD24low in ESA+ cells / % CSt-like-C / % ESA+: MIA-PaCa-2 after culture with drug. In kind it is cell-based, human. On the procedure: as §1
Experiment [5] relates to PANC-1. The description is as above. In kind it is cell-based, human. Here is the method:
as §1

Experiment [6] concerns MCF7 cells. Briefly: Stimulation of MCF7 / GEMRes MCF7 by DLL4. In kind it is cell-based, human. On the procedure: Stimulation of GEMRes MCF7 by DLL4. GEMRes MCF7 were obtained after culture with 0.3 uM GEM for 7 weeks. MCF7 were stimulated for 24 hrs, in medium containing estradiol, fibroblast growth factor in the presence or absence of DLL4, as described (40).
The test system of experiment [7] is MCF7. Briefly: Quantitative immunoblot of Notch and Numb proteins with or without GEM. In kind it is cell-based, human. On the procedure: (§2) Western blot analysis. Cell lysates of live MIA-PaCa-2, MCF7, and SKOV-3 were prepared as we described (74) after trypsin treatment of cultures. This procedure eliminated dead and dying cells. Cellular proteins were resolved by SDS-PAGE and transferred to a polyvinylidene difluoride membrance. Immuno-blotting and quantification was performed as we described (74). […] Notch signals promote survival and proliferation of normal stem cells. Notch signals are mediated by truncated intracellular domain (NICD), which activate transcription in the nucleus. Numb antagonizes Notch signal by inducing degradation of Notch (60, 13). Mammalian Numb has four splicing isoforms, which are divided into two types (Numb^L and Numb^S) based on the presence or absence of a 49 amino acid insert (5 kDa) in the proline-rich region (PRR) in the C-terminus. It is unclear whether Numb^L or Numb^S is a significant antagonist of Notch. To characterize expression of Notch and Numb proteins we performed quantitative immunoblot analysis of proteins in the lysates of live MIA-PaCa-2 and MCF7 cultured with or without GEM. (FIG. 9).

In experiment [8] the test system is MIA-PaCa-2. The description is as above. In kind it is cell-based, human. On the procedure: as §2
The test system of experiment [9] is MIA-PaCa-2. Briefly: Flow cytometry of CSt-C markers after culture with drugs. In kind it is cell-based, human. Conditions: starting from 3.0×10^6 Mia-PaCa-2 cells.
For experiment [10], the system named is MIA-PaCa-2. Briefly: Flow cytometry of NKG2D ligands MIC-A/B in drug-resistant cells. In kind it is cell-based, human. Conditions: MIA PaCa-2, FIG. 7A. Here is the method:
as §1
To address the hypothesis that drug-resistant cancer cells are more sensitive to cellular immune effectors, we quantified expression of NKG2D ligands, MIC-A and -B (58, 59). ESA^+ MIA-PaCa-2 cells were analyzed for MIC-A/B. MCF7 cells were analyzed with CD44, CD24 and MIC-A/B (FIG. 7B), because almost all MCF7 cells (95% and more) expressed ESA.

For experiment [11], the system named is AsPC-1. Nature of the experiment: MTT inhibition of proliferation. In kind it is cell-based, human. As to conditions: for pIC50: AsPC-1, MTT, 72 h. An excerpt: (§3) Inhibition of proliferation of tumor cell lines by anticancer drugs.
Experiment [12] has as its system SKOV-3. Nature of the experiment: MTT inhibition of proliferation. In kind it is cell-based, human. As to conditions: SKOV-3, MTT.
Source text: as §3

For experiment [13], the system named is MCF7. Nature of the experiment: MTT inhibition of proliferation. In kind it is cell-based. As to conditions: Homo sapiens, 72 h.
Source text: as §3

For experiment [14], the system named is MIA-PaCa-2. Briefly: MTT inhibition of proliferation. In kind it is cell-based. Conditions: Homo sapiens; MIA-PaCa-2, MTT, 72 h.
Source text: as §3

Experiment [15] concerns PANC-1. Nature of the experiment: MTT inhibition of proliferation. In kind it is cell-based. Conditions: Homo sapiens; PANC-1, MTT, 72 h.
Source text: as §3

The subject of experiment [16] is breast tumors. As to conditions: reference 14; cited from earlier work.
The subject of experiment [17] is Ovarian and PC. Briefly: CD44+ CD24lo cells after taxol. In kind it is cell-based. Conditions: Ovarian and PC treated.
The subject of experiment [18] is SKOV3.A2 cells. Briefly: IFN-g production by Numb-1 peptide activated PBMC on SKOV3.A2 cells. In kind it is cell-based, human. As to conditions: presentation of Numb-1(87-95) peptide; 24 h and 48 h. Here is the method: FIG. 11. (A). SKOV3.A2 cells present the Numb-1 (87-95) peptide to Numb-1 peptide activated PBMC. Substantially higher, by 2-fold IFN-g production by Numb-1-peptide activated PBMC than by Notch peptides activated PBMC. Note that at 48 h the amount of IFN g produced by the two Notch peptide activated cell lines and the non-specifically, IL-2-activated cell lines was low and similar. Only Notch peptide, 2112-2120, can be presented by HL-A2 after Notch digestion by proteasome. (the program paproc.de). (B). Western analysis of Notch and Numb protein expression in SKOV3. […] A part of Numb is phosphorylated. A small part of Numb was phosphorylated at the Ser^283. A large part of Numb was phosphorylated at the Ser^264. […] The closed symbols indicate are 24 h measurements, the open symbols indicate 48 h measurements.

For the compound `Nc1ccn([C@@H]2O[C@H](CO)[C@@H](O)C2(F)F)c(=O)n1` [GEM, gemcitabine hydrochloride], the “change of CSt-like-C population” value in experiment [1] (MCF7) was “increased”. Moreover, the “increase of ESA+ CD44hi CD24low and CD133+ populations in GEMRes population vs entire population” value in experiment [1] (MCF7), in [3] (SKOV3), in [4] (Mia-PaCa-2) and in [5] (PANC-1) was 3-5 fold each time. In addition, the “% CD44hi CD24- in ESA+ cells” value was found to be 0.3% in experiment [1] (MCF7 after culture with drug); 19.3% in [2]; 0.1% in experiment [3] (SKOV-3 after culture with drug); 1.1% in experiment [4]; 8.6% in [5] (PANC-1 after culture with drug). In addition, the “% CD44hi CD24hi in ESA+ cells” value in experiment [1] (MCF7 after culture with drug) came out at 10.2%; in experiment [2], 20.1%; in experiment [3] (SKOV-3 after culture with drug), 46.0%; in experiment [4], 12.2%; in experiment [5] (PANC-1 after culture with drug) it was 9.7%. Besides, the “% CD44hi CD24low in ESA+ cells” value is reported as 6.3% in experiment [1] (MCF7 after culture with drug); 58.2% in experiment [2]; 51.5% in experiment [3] (SKOV-3 after culture with drug); 43.2% in experiment [4]; 50.0% in experiment [5] (PANC-1 after culture with drug). In addition, the “% CSt-like-C” value in experiment [1] (MCF7 after culture with drug) was found to be 6.3%; in experiment [2], 57.6%; in [3] (SKOV-3 after culture with drug), 50.2%; in experiment [4], 17.0%; in [5] (PANC-1 after culture with drug), 38.3%. For the same compound, the “% ESA+” value in [1] (MCF7 after culture with drug) is 95.4%; in experiment [2], 98.9%; in experiment [3] (SKOV-3 after culture with drug), 97.5%; in experiment [4], 39.5%; in [5] (PANC-1 after culture with drug) it was 76.7%. The figures for the cells harvested in [1] and in experiment [9] were 0.6 ×10^6 and 1.3 ×10^6 cells, respectively. For the same compound, in [4] (MIA-PaCa-2), the “change of CSt-C (CSt-like-C) population” value is reported as “increased”. For the same compound, the “GEMRes MCF7 cells in G1 (resting) phase” value in experiment [6] was over 90%. Also, the “CD44hi CD24hi (% of cells)” value in experiment [6] (MCF7) was found to be 19.7%. Further, the “CD44hi CD24hi (cell number)” value in [6] (MCF7) amounted to 0.26. Moreover, the “CD44hi CD24low (% of cells)” value in experiment [6] (MCF7) was “(7.1%)”. Further, the “CD44hi CD24low (cell number)” value in experiment [6] (MCF7) is 0.09 × 10^6. The “ratio CD44hi CD24hi to CD44hi CD24low” value in experiment [6] (MCF7) is on record as 2. The “Stimulation Index” value in experiment [6] (MCF7, harvested/seeded) is 0.44. The Harvested cells in experiment [6] (MCF7, seeded 3.0 x 10^6) was 1.32 10^6. The “NECD expression increase, GEMRes vs GEMSens” value worked out at 73% in experiment [7] and 18% in experiment [8]. Moreover, in experiment [7], the “NICD level decrease, GEMRes vs GEMSens” value was determined as 39%. Further, in experiment [7], the “NumbL expression decrease, GEMRes vs GEMSens” value turned out to be 29%. The “NumbS decrease, GEMRes vs GEMSens” value in experiment [7] and in experiment [8] was 18% each time. Further, in experiment [8], the “NICD level increase, GEMRes vs GEMSens” value came to 35%. Besides, the “NumbL expression increase, GEMRes vs GEMSens” value in experiment [8] amounted to 50%. The “number of cells expressing MICA and MICB in drug-resistant cells” value in experiment [10] is recorded as “increased”. The pIC50 in experiment [11] (hydrochloride) is 7.70; in experiment [11] (Homo sapiens, ASPC1, 72 h) it was over 7.70; in [12] (Homo sapiens, SK-OV-3, 72 h), over 7.70; in experiment [12] (72 h, hydrochloride), 7.80; in [13], 6.37; in experiment [14], 6.52. This compound also had a pIC50 in experiment [15] of 6.46.

As for `CC(C)C[C@@H](C=O)NC(=O)[C@H](CC(C)C)NC(=O)[C@H](CC(C)C)NC(=O)OCc1ccccc1` [MG132] (Cbz-Leu-Leu-Leu-aldehyde), in [16], the “low Numb levels after treatment” value is reported as “restored to high levels”.

In the case of `CC(=O)O[C@H]1C(=O)[C@@]2(C)[C@H]([C@H](OC(=O)c3ccccc3)[C@]3(O)C[C@H](OC(=O)[C@H](O)[C@@H](NC(=O)c4ccccc4)c4ccccc4)C(C)=C1C3(C)C)[C@]1(OC(C)=O)CO[C@@H]1C[C@@H]2O` [PTX, paclitaxel], the “change of CSt-like-C population” value in [1] (MCF7) is “increased”. Moreover, the cells harvested in experiment [1] is reported as 0.4 ×10^6; in experiment [9], 3.3 ×10^6 cells. Also, the “% CD44hi CD24- in ESA+ cells” value in experiment [4] is recorded as 1.0%. The “% CD44hi CD24hi in ESA+ cells” value in [4] was 21.2%. Moreover, the “% CD44hi CD24low in ESA+ cells” value in experiment [4] amounted to 23.1%. For the same compound, the “% CSt-like-C” value in experiment [4] is listed as 7.7%. The “% ESA+” value in [4] was determined as 33.2%. Also, in experiment [17], the “number of CD44+ CD24lo cells” value is listed as “increased”. Moreover, in experiment [10], the “number of cells expressing MICA and MICB in drug-resistant cells” value is “did not increase”. Also, the negative logarithm of the IC50 (pIC50) in experiment [11] (Homo sapiens, ASPC1, 72 h) was 7.74; in experiment [12] (Homo sapiens, SK-OV-3, 72 h), 8.33; in experiment [13], 8.35; in experiment [14], 8.28; in [15] it was 8.41. Further, in experiment [11] (most resistant vs most sensitive line), the “IC50 in AsPC-1 relative to PANC-1” value is reported as “more than 4 fold”.

For `C[S+]([O-])c1ccc(-c2nc(-c3ccc(F)cc3)c(-c3ccncc3)[nH]2)cc1` (stereo not shown) [SB20380], in [18], the “effect of treatment of SKOV3.A2 cells on IFN-g production by the indicator cell line” value is “weaker inhibitory effect”.

Turning to `CN[C@@H]1C[C@H]2O[C@@](C)([C@@H]1OC)n1c3ccccc3c3c4c(c5c6ccccc6n2c5c31)C(=O)NC4` [staurosporine], the “effect of treatment of SKOV3.A2 cells on IFN-g production by the indicator cell line” value in [18] was “abolished”.

These data come from patent US20100062012A1, “Negative Genetic Regulation of Cancer Cell Renewal in Synergy with Notch- or Numb-Specific Immunotherapy” (priority 2007, published 2010).
